The results in this text go back to ChEMBL document CHEMBL1201862, “PubChem BioAssay data set” (2004).

Test systems include A498; A549; BT-549; CCRF-CEM; DU-145; HCC 2998; HCT-15; HOP-62; HT-29; IGROV-1; K562; LOX IMVI; MCF7; NCI-H226; PC-3; RPMI-8226; SN12C; SNB-19; SR; SW-620.
Experiment in all cases: NCI tumour cell line growth inhibition, 48 h

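These data come from cells grown in 96-well plates and exposed to compound for 48 hours at five concentrations. Abbreviation: GI50, concentration required for 50% inhibition of growth.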 The source made the active and inactive calls. No stated cut-off is given here; in the data, active = GI50 up to about 1.1 µM and inactive = higher.

Consider `O=C1c2nc3n(c2C(=O)c2c1nc1n2CCC1)CCC3`, for which the GI50 in the assay with A498 is 16 µM (inactive); in the assay with A549, 4.39 µM (inactive); in the assay on BT-549 it was > 10 µM (inactive); with CCRF-CEM it was 6.41 µM (inactive); in the assay with DU-145, > 10 µM (inactive); in the assay on HCC 2998, 8.22 µM (inactive). Further, the GI50 in the assay with HCT-15 is 5.79 µM; in the assay with HOP-62 it was 4.62 µM (inactive); in the assay with HT-29, 3.14 µM (inactive); with IGROV-1, 11.5 µM (inactive); in the assay on K562, 13 µM (inactive); with LOX IMVI it was 3.1 µM (inactive). In addition, the GI50 in the assay with MCF7 is 2.68 µM (inactive); in the assay on NCI-H226, 6.97 µM (inactive); in the assay with PC-3, > 10 µM (inactive); with RPMI-8226, 15.1 µM (inactive); in the assay on SN12C, 3.64 µM (inactive); in the assay with SNB-19 it was 14.7 µM (inactive). Moreover, the GI50 was 3.01 µM (inactive) in the assay with SR and 5.13 µM (inactive) in the assay with SW-620.

For `C(/Cc1ccc2c(c1)OCO2)=N\N=C1NCCCCN1`, the GI50 with A498 was 24.8 µM (inactive); in the assay with A549 it was > 100 µM (inactive); with BT-549 it was > 100 µM (inactive); with CCRF-CEM, 82.2 µM (inactive); with DU-145, > 100 µM (inactive); with HCC 2998, 28.2 µM (inactive). Further, the GI50 in the assay on HCT-15 was > 100 µM; with HOP-62 it was 55.8 µM (inactive); in the assay on HT-29, 47.8 µM (inactive); with IGROV-1, 68.9 µM (inactive); in the assay on K562 it was 41.9 µM (inactive); with LOX IMVI, 55.5 µM (inactive). In addition, the GI50 in the assay on MCF7 is 88.3 µM (inactive); in the assay on NCI-H226, 49.2 µM (inactive); with PC-3, 86.1 µM (inactive); with RPMI-8226 it was 48.4 µM (inactive); with SN12C, 73.6 µM (inactive); in the assay with SNB-19 it was > 100 µM (inactive). Further, the GI50 in the assay on SR was 69.3 µM (inactive); with SW-620, > 100 µM (inactive).

For `CC1SCCc2nc3ccccc3n21` (stereo not given), the GI50 in the assay on A498, with A549, in the assay on BT-549, in the assay on CCRF-CEM, in the assay on DU-145 and in the assay on HCC 2998 was > 100 µM (inactive) in each case. For the same molecule, the GI50 in the assay with HCT-15 is > 100 µM; in the assay on HOP-62, > 100 µM (inactive); with HT-29, > 100 µM (inactive); in the assay with IGROV-1, > 100 µM (inactive); in the assay on K562, > 100 µM (inactive); in the assay on LOX IMVI it was > 100 µM (inactive). In addition, the GI50 with MCF7, in the assay with NCI-H226, with PC-3, in the assay with RPMI-8226, in the assay on SN12C and in the assay on SNB-19 was > 100 µM (inactive) in each case. Besides, the GI50 with SR and with SW-620 was > 100 µM (inactive) each time.

As for `COC(=O)C1CC2(C)C=CC1N(C(=O)OCc1ccccc1)C2` (stereo not given), the GI50 in the assay with A498 was > 100 µM (inactive); in the assay with A549, 88.5 µM (inactive); in the assay on BT-549, 54.1 µM (inactive); with CCRF-CEM, 69 µM (inactive); in the assay with DU-145, > 100 µM (inactive); with HCC 2998, > 100 µM (inactive). The GI50 was 94 µM with HCT-15; > 100 µM (inactive) in the assay on HOP-62; 46.2 µM (inactive) in the assay on HT-29; > 100 µM (inactive) in the assay with IGROV-1; 49.7 µM (inactive) in the assay on K562; > 100 µM (inactive) in the assay on LOX IMVI. For the same molecule, the GI50 in the assay with MCF7 is 52.7 µM (inactive); with NCI-H226, > 100 µM (inactive); with PC-3 it was 87.7 µM (inactive); in the assay with RPMI-8226 it was 48 µM (inactive); in the assay on SN12C, > 100 µM (inactive); with SNB-19, > 100 µM (inactive). For the same molecule, the GI50 with SR is 37.6 µM (inactive); in the assay with SW-620, > 100 µM (inactive).

For `Oc1c2cc(Br)cc1CCc1cc(Br)cc(c1O)CC2`, the GI50 is 31.8 µM (inactive) in the assay on A498; 26.9 µM (inactive) with A549; 22.6 µM (inactive) with BT-549; 18.2 µM (inactive) in the assay with CCRF-CEM; 16 µM (inactive) in the assay on DU-145; 15.3 µM (inactive) with HCC 2998. Further, the GI50 was 30.5 µM with HCT-15; 28.6 µM (inactive) in the assay on HOP-62; 15.6 µM (inactive) with HT-29; 38.2 µM (inactive) in the assay on IGROV-1; 20.2 µM (inactive) in the assay on K562; 16.2 µM (inactive) in the assay on LOX IMVI. Also, the GI50 in the assay with MCF7 was 22.3 µM (inactive); in the assay with NCI-H226, 16.3 µM (inactive); in the assay on PC-3 it was 14.8 µM (inactive); with RPMI-8226, 17.2 µM (inactive); with SN12C it was 41.9 µM (inactive); in the assay with SNB-19 it was 31 µM (inactive). Further, the GI50 was < 0.01 µM (active) with SR and 24.3 µM (inactive) in the assay on SW-620.

Turning to `O=C(O)CC(CC(=O)O)C(=O)O` [TRICARBALLYLIC ACID], the GI50 in the assay on A498, in the assay with A549, with BT-549, in the assay on CCRF-CEM, in the assay with DU-145 and in the assay with HCC 2998 was > 100 µM (inactive) throughout. Also, the GI50 in the assay on HCT-15 was > 100 µM; in the assay on HOP-62 it was > 100 µM (inactive); in the assay on HT-29, > 100 µM (inactive); in the assay with IGROV-1, > 100 µM (inactive); in the assay with K562, > 100 µM (inactive); in the assay with LOX IMVI, > 100 µM (inactive). Besides, the GI50 in the assay on MCF7, in the assay on NCI-H226, with PC-3, in the assay with RPMI-8226, with SN12C and in the assay with SNB-19 was > 100 µM (inactive) in each case. Besides, the GI50 in the assay with SR and with SW-620 was > 100 µM (inactive) throughout.

With `Cc1cc(O)c(O)c(Oc2cc(C)cc(O)c2O)c1`, the GI50 is > 100 µM (inactive) in the assay on A498; 73.1 µM (inactive) in the assay with A549; 20.1 µM (inactive) in the assay with BT-549; 2.37 µM (inactive) with CCRF-CEM; 23.3 µM (inactive) in the assay with DU-145; 32 µM (inactive) in the assay with HCC 2998. Moreover, the GI50 with HCT-15 was 9.14 µM; in the assay with HOP-62, 67.6 µM (inactive); in the assay with HT-29 it was 20.8 µM (inactive); with IGROV-1, 12.4 µM (inactive); in the assay on K562, 15.1 µM (inactive); in the assay on LOX IMVI it was 4.57 µM (inactive). Moreover, the GI50 with MCF7 is 13.1 µM (inactive); in the assay on NCI-H226, 18.4 µM (inactive); in the assay with PC-3 it was 21.9 µM (inactive); in the assay on RPMI-8226 it was 31.1 µM (inactive); in the assay on SN12C, 13.2 µM (inactive); in the assay with SNB-19 it was 35.9 µM (inactive). In addition, the GI50 in the assay with SR was 6.7 µM (inactive); with SW-620 it was 16.9 µM (inactive).
